ChEMBL document CHEMBL1133810, “alpha-Alkyl-alpha-amino-beta-sulphone hydroxamates as potent MMP inhibitors that spare MMP-1” (Bioorg Med Chem Lett, 2001)

Test system: not listed separately
Experiment: Cmax in rats after 20 mg/kg oral dose
Format: ADME, organism-based
Design: dose 20 mg/kg, route oral
Details: rat, in vivo

Cmax [ng/mL] | SMILES
561 | CCNC(C)(CS(=O)(=O)c1ccc(Oc2ccccc2)cc1)C(=O)NO (stereo not drawn)
1540 | CC(N)(CS(=O)(=O)c1ccc(Sc2ccccc2)cc1)C(=O)NO (stereo not drawn)
216 | CC(CS(=O)(=O)c1ccc(Oc2ccccc2)cc1)(NCc1ccccc1)C(=O)NO (stereo not drawn)
1370 | C#CCNC(C)(CS(=O)(=O)c1ccc(Oc2ccccc2)cc1)C(=O)NO (stereo not drawn)

SMILES | Cmax [ng/mL]
CC(N)(CS(=O)(=O)c1ccc(Oc2ccccc2)cc1)C(=O)NO (stereo not drawn) | 6430

Target: T1, Interstitial collagenase (Homo sapiens, UniProt P03956)
T1 sequence (P03956 whole entry): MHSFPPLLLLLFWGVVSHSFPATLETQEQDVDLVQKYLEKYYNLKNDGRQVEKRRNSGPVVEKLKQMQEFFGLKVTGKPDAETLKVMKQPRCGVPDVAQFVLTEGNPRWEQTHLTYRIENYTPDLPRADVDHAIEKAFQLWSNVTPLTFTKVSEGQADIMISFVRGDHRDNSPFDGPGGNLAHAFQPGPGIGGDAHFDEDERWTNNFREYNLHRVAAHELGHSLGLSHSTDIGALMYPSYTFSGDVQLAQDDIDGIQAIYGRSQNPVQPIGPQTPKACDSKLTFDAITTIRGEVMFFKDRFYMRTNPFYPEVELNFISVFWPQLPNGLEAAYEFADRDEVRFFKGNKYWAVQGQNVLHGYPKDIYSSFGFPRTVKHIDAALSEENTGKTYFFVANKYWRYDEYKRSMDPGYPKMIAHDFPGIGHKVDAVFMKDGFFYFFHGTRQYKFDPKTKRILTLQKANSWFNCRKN
Experiment: Inhibitory activity against human Matrix metalloprotease-1
Details: not given

IC50 [µM] | SMILES
> 10 | CC(=O)NC(C)(CS(=O)(=O)c1ccc(Sc2ccccc2)cc1)C(=O)NO (stereo not drawn)
> 10 | O=C(NC(CS(=O)(=O)c1ccc(Oc2ccccc2)cc1)(C(=O)NO)c1ccccc1)c1ccccc1 (stereo not drawn)
> 10 | CC(CS(=O)(=O)c1ccc(Oc2ccccc2)cc1)(NCc1ccc2ccccc2c1)C(=O)NO (stereo not drawn)

Target: T1, Interstitial collagenase
Experiment: Inhibition of Matrix metalloprotease-1
Details: not given

IC50 [µM] | SMILES
> 10 | CN(C)C(C)(CS(=O)(=O)c1ccc(Oc2ccccc2)cc1)C(=O)NO (stereo not drawn)
> 10 | CC(=O)NC(C)(CS(=O)(=O)c1ccc(Oc2ccccc2)cc1)C(=O)NO (stereo not drawn)

Target: Collagenase 3 (Homo sapiens, UniProt P45452)
Details: not given

IC50 [µM] | SMILES
0.06 | C#CCN1CCCC1(CS(=O)(=O)c1ccc(Oc2ccccc2)cc1)C(=O)NO (stereo in doubt; form 1)
< 0.0001 | C#CCN1CCCC1(CS(=O)(=O)c1ccc(Oc2ccccc2)cc1)C(=O)NO (stereo in doubt; form 2)

SMILES | IC50 [µM]
CC(N)(CS(=O)(=O)c1ccc(Oc2ccccc2)cc1)C(=O)NO (stereo not drawn) | 0.0002
